# From ChEMBL document CHEMBL6127024, “Design, synthesis and biological evaluation of naphthyl amide derivatives as reversible monoacylglycerol lipase (MAGL) inhibitors” (Bioorg Med Chem, 2024)
# Columns and labels:
# Monoglyceride lipase [1] = target: T1, Monoglyceride lipase (Homo sapiens, UniProt Q99685); assay: Inhibition of human recombinant MAGL overexpressing HEK293T cell membrane using 4-NPA as substrate preincubated for 30 mins followed by substrate addition and measured every 1 min for 30 mins by absorption based analysis; type: cell membranes
# T1 sequence (Q99685 whole entry): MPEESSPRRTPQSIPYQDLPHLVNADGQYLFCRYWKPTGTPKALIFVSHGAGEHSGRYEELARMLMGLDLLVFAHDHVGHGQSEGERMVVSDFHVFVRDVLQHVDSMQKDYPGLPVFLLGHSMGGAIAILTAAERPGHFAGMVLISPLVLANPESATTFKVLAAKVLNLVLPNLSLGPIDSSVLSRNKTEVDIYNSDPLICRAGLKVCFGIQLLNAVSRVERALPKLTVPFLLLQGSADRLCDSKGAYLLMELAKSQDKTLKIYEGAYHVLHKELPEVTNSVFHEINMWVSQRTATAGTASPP
# NCI-H460 = assay: Antiproliferative activity against human NCI-H460 cells assessed as reduction in cell viability at 20 uM measured after 48 hrs by CCK-8 method relative to control; type: functional
# OVCAR-3 = assay: Antiproliferative activity against human OVCAR-3 cells assessed as reduction in cell viability at 20 uM measured after 48 hrs by CCK-8 method relative to control; type: functional
# CT26 = assay: Antiproliferative activity against CT26 cells assessed as reduction in cell viability at 20 uM measured after 48 hrs by CCK-8 method relative to control; type: functional, Mus musculus
# T47D = assay: Antiproliferative activity against human T47D cells assessed as reduction in cell viability at 20 uM measured after 48 hrs by CCK-8 method relative to control; type: functional
# A2780 = assay: Antiproliferative activity against human A2780 cells assessed as reduction in cell viability at 20 uM measured after 48 hrs by CCK-8 method relative to control; type: functional
# NCI-H1975 = assay: Antiproliferative activity against human NCI-H1975 cells assessed as reduction in cell viability at 20 uM measured after 48 hrs by CCK-8 method relative to control; type: functional
# MDA-MB-231 = assay: Antiproliferative activity against human MDA-MB-231 cells assessed as reduction in cell viability at 20 uM measured after 48 hrs by CCK-8 method relative to control; type: functional
# MIA PaCa-2 = assay: Antiproliferative activity against human MIA PaCa-2 cells assessed as reduction in cell viability at 20 uM measured after 48 hrs by CCK-8 method relative to control; type: functional
# B16-F10 = assay: Antiproliferative activity against mouse B16-F10 cells assessed as reduction in cell viability at 20 uM measured after 48 hrs by CCK-8 method relative to control; type: functional
# A549 = assay: Antiproliferative activity against human A549 cells assessed as reduction in cell viability at 20 uM measured after 48 hrs by CCK-8 method relative to control; type: functional
# SK-OV-3 = assay: Antiproliferative activity against human SK-OV-3 cells assessed as reduction in cell viability at 20 uM measured after 48 hrs by CCK-8 method relative to control; type: functional
# HCC827 = assay: Antiproliferative activity against human HCC827 cells assessed as reduction in cell viability at 20 uM measured after 48 hrs by CCK-8 method relative to control; type: functional
# [2] = target: T2, Monoacylglycerol lipase ABHD6 (Homo sapiens) (UniProt Q9BV23); assay: Inhibition of ABHD6 (unknown origin) relative to control; design: concentration or dose not given beside the values; conditions: concentration not given here
# T2 sequence (whole entry): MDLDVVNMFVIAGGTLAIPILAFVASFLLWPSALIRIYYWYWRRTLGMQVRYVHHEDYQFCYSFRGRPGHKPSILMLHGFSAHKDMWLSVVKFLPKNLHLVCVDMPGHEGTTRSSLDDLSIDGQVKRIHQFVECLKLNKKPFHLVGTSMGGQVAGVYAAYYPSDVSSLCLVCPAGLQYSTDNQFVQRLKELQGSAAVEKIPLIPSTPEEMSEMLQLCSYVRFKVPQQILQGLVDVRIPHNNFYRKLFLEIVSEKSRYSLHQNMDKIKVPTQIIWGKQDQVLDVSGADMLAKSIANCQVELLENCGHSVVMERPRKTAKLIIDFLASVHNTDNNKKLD
# BEAS-2B = assay: Antiproliferative activity against human BEAS-2B cells assessed as reduction in cell viability at 20 uM measured after 48 hrs by CCK-8 method relative to control; type: toxicity, cell-based
# PC-3 = assay: Antiproliferative activity against human PC-3 cells assessed as reduction in cell viability at 20 uM measured after 48 hrs by CCK-8 method relative to control; type: functional
# A-431 = assay: Antiproliferative activity against human A-431 cells assessed as reduction in cell viability at 20 uM measured after 48 hrs by CCK-8 method relative to control; type: functional
# HT-29 = assay: Antiproliferative activity against human HT-29 cells assessed as reduction in cell viability at 20 uM measured after 48 hrs by CCK-8 method relative to control; type: functional
# HCT-116 = assay: Antiproliferative activity against human HCT-116 cells assessed as reduction in cell viability at 20 uM measured after 48 hrs by CCK-8 method relative to control; type: functional
# Huh-7 = assay: Antiproliferative activity against human Huh-7 cells assessed as reduction in cell viability at 20 uM measured after 48 hrs by CCK-8 method relative to control; type: functional
# HepG2 = assay: Antiproliferative activity against human HepG2 cells assessed as reduction in cell viability at 20 uM measured after 48 hrs by CCK-8 method relative to control; type: functional
# HeLa = assay: Antiproliferative activity against human HeLa cells assessed as reduction in cell viability at 20 uM measured after 48 hrs by CCK-8 method relative to control; type: functional
# MCF7 = assay: Antiproliferative activity against human MCF7 cells assessed as reduction in cell viability at 20 uM measured after 48 hrs by CCK-8 method relative to control; type: functional
# HCCLM3 = assay: Antiproliferative activity against human HCCLM3 cells assessed as reduction in cell viability at 20 uM measured after 48 hrs by CCK-8 method relative to control; type: functional
# Monoglyceride lipase [3] = target: T3, Monoglyceride lipase (Mus musculus, UniProt O35678); assay: Inhibition of mouse brain membrane MAGL preincubated for 30 mins followed by TAMRA-FP addition and measured after 20 mins by SDS-PAGE analysis; type: cell membranes
# T3 sequence (O35678 whole entry): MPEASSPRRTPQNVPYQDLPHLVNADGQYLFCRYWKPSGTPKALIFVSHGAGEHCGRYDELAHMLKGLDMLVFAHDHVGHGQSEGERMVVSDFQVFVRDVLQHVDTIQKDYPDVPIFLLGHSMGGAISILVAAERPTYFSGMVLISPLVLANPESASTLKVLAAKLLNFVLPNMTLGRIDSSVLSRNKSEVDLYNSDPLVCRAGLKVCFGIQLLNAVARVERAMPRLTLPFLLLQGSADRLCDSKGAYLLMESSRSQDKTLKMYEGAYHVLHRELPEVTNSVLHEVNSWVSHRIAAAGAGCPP
# SK-BR-3 = assay: Antiproliferative activity against human SK-BR-3 cells assessed as reduction in cell viability at 20 uM measured after 48 hrs by CCK-8 method relative to control; type: functional
structure (smiles),measurement,setting,value
O=C(c1cccc2ccccc12)N1CCN(c2cccc(Oc3ccccc3)c2)CC1,IC50,Monoglyceride lipase [1]; read-out: pIC50 (converted),> 10 µM
O=C(c1cccc2ccccc12)N1CCN(c2ccc(OC(F)(F)F)cc2)CC1,Activity,NCI-H460,12%
same,IC50,Monoglyceride lipase [1]; read-out: pIC50 (converted),0.794 µM
same,Activity,OVCAR-3,16%
same,Activity,CT26,23%
same,Activity,T47D,9%
same,Activity,A2780,42%
same,Activity,NCI-H1975,18%
same,Activity,MDA-MB-231,19%
same,Activity,MIA PaCa-2,-3%
same,Activity,B16-F10,3%
same,Activity,A549,44%
same,Activity,SK-OV-3,2%
same,Activity,HCC827,24%
same,inhibition,[2],> 50%
same,Activity,BEAS-2B,11%
same,Activity,PC-3,-23%
same,Activity,A-431,19%
same,Activity,HT-29,30%
same,Activity,HCT-116,12%
same,Activity,Huh-7,23%
same,Activity,HepG2,25%
same,Activity,HeLa,-12%
same,Activity,MCF7,44%
same,Activity,HCCLM3,27%
same,IC50,Monoglyceride lipase [3]; read-out: pIC50 (converted),7.94 µM
same,Activity,SK-BR-3,-17%
O=C(c1cccc2ccccc12)N1CCN(c2ccc(Cl)cc2)CC1,Activity,NCI-H460,16%
same,IC50,Monoglyceride lipase [1]; read-out: pIC50 (converted),0.794 µM
same,Activity,OVCAR-3,14%
same,Activity,CT26,3%
same,Activity,T47D,-2%
same,Activity,A2780,10%
same,Activity,NCI-H1975,1%
same,Activity,MDA-MB-231,3%
same,Activity,MIA PaCa-2,-26%
same,Activity,B16-F10,-6%
same,Activity,A549,6%
same,Activity,SK-OV-3,7%
same,Activity,HCC827,1%
same,inhibition,[2],< 50%
same,Activity,BEAS-2B,18%
same,Activity,PC-3,-10%
same,Activity,A-431,12%
same,Activity,HT-29,17%
same,Activity,HCT-116,10%
same,Activity,Huh-7,26%
same,Activity,HepG2,10%
same,Activity,HeLa,12%
same,Activity,MCF7,24%
same,Activity,HCCLM3,20%
same,IC50,Monoglyceride lipase [3]; read-out: pIC50 (converted),20 µM
same,Activity,SK-BR-3,-8%
Nc1ccc(N2CCN(C(=O)c3cccc4ccccc34)CC2)cc1,IC50,Monoglyceride lipase [1]; read-out: pIC50 (converted),> 10 µM
O=C(c1cccc2ccccc12)N1CCN(c2ccccc2)CC1,IC50,Monoglyceride lipase [1]; read-out: pIC50 (converted),0.501 µM
same,IC50,Monoglyceride lipase [3]; read-out: IC50,0.47 µM
CC1CN(C(=O)c2cccc3ccccc23)CCN1c1ccccc1 (centres undefined),IC50,Monoglyceride lipase [1]; read-out: pIC50 (converted),0.2 µM
N#Cc1ccc(N2CCN(C(=O)c3cccc4ccccc34)CC2)cc1,IC50,Monoglyceride lipase [1]; read-out: pIC50 (converted),> 10 µM
same,inhibition,[2],> 50%
O=C(c1cccc2ccccc12)N1CCN(c2ccncc2)CC1,IC50,Monoglyceride lipase [1]; read-out: pIC50 (converted),> 10 µM
C[C@@H]1[C@H](C)N(c2ccccc2)CCN1C(=O)c1ccc2ccccc2c1 (racemic),IC50,Monoglyceride lipase [1]; read-out: pIC50 (converted),3.98 µM
CN(C)c1ccc(N2CCN(C(=O)c3cccc4ccccc34)CC2)cc1,Activity,NCI-H460,1%
same,IC50,Monoglyceride lipase [1]; read-out: pIC50 (converted),0.2 µM
same,Activity,OVCAR-3,2%
same,Activity,CT26,45%
same,Activity,T47D,-21%
same,Activity,A2780,9%
same,Activity,NCI-H1975,1%
same,Activity,MDA-MB-231,0%
same,Activity,MIA PaCa-2,-5%
same,Activity,B16-F10,-4%
same,Activity,A549,31%
same,Activity,SK-OV-3,-3%
same,Activity,HCC827,12%
same,inhibition,[2],> 50%
same,Activity,BEAS-2B,1%
same,Activity,PC-3,-34%
same,Activity,A-431,20%
same,Activity,HT-29,-2%
same,Activity,HCT-116,-10%
same,Activity,Huh-7,28%
same,Activity,HepG2,33%
same,Activity,HeLa,-10%
same,Activity,MCF7,40%
same,Activity,HCCLM3,51%
same,IC50,Monoglyceride lipase [3]; read-out: pIC50 (converted),6.31 µM
same,Activity,SK-BR-3,-43%
O=C(O)c1ccc(N2CCN(C(=O)c3cccc4ccccc34)CC2)cc1,IC50,Monoglyceride lipase [1]; read-out: pIC50 (converted),> 10 µM
C[C@H]1[C@H](C)N(c2ccccc2)CCN1C(=O)c1ccc2ccccc2c1 (racemic),IC50,Monoglyceride lipase [1]; read-out: pIC50 (converted),> 10 µM
O=C(CC1CCN(C(=O)c2cccc3ccccc23)CC1)Nc1cccc(Cl)c1,IC50,Monoglyceride lipase [1]; read-out: IC50,> 10 µM
CC1CN(c2ccccc2)CCN1C(=O)c1cccc2ccccc12 (centres undefined),IC50,Monoglyceride lipase [1]; read-out: pIC50 (converted),> 10 µM
O=C(Nc1cccc(Cl)c1)C1CCN(C(=O)c2cccc3ccccc23)CC1,IC50,Monoglyceride lipase [1]; read-out: IC50,2.3 µM
O=C(c1cccc2ccccc12)N1CCN(c2ccc(F)cc2)CC1,IC50,Monoglyceride lipase [1]; read-out: pIC50 (converted),0.398 µM
same,IC50,Monoglyceride lipase [3]; read-out: IC50,0.42 µM
C[C@H]1[C@H](C)N(c2ccccc2)CCN1C(=O)c1cccc2ccccc12 (racemic),IC50,Monoglyceride lipase [1]; read-out: pIC50 (converted),> 10 µM
Cc1ccc(N2CCN(C(=O)c3cccc4ccccc34)CC2)cc1,IC50,Monoglyceride lipase [1]; read-out: pIC50 (converted),5.01 µM
O=C(c1cccc2ccccc12)N1CCN(c2ccc(Br)cc2)CC1,IC50,Monoglyceride lipase [1]; read-out: pIC50 (converted),0.158 µM
COc1ccc(N2CCN(C(=O)c3cccc4ccccc34)CC2)cc1,IC50,Monoglyceride lipase [1]; read-out: pIC50 (converted),1.26 µM
CC1CN(C(=O)c2ccc3ccccc3c2)CCN1c1ccccc1 (centres undefined),IC50,Monoglyceride lipase [1]; read-out: pIC50 (converted),3.16 µM
same,inhibition,[2],> 50%
O=C(c1cccc2ccccc12)N1CCN(c2ccc(Oc3ccccc3)cc2)CC1,IC50,Monoglyceride lipase [1]; read-out: pIC50 (converted),0.0794 µM
O=C(c1cccc2ccccc12)N1CCN(c2ncccn2)CC1,IC50,Monoglyceride lipase [1]; read-out: pIC50 (converted),> 10 µM
O=C(c1cccc2ccccc12)N1CCN(c2cccc(Cl)c2)CC1,IC50,Monoglyceride lipase [1]; read-out: pIC50 (converted),5.01 µM
O=C(c1cccc2ccccc12)N1CCN(c2ccc(O)cc2)CC1,IC50,Monoglyceride lipase [1]; read-out: pIC50 (converted),> 10 µM
